The test system of one test is NCI-H358 cells. Briefly: Soft agar proliferation assay in low serum. The format is cell-based. As to conditions: Homo sapiens, soft agar and low serum conditions, read-out: EC50 antiproliferative effect. The method, then: 263 (ATCC® CCL-224™; grown in RPMI 10% FCS) and SK-MEL-28 (ATCC® HTB-
264 72™, grown in EMEM 10% FCS). Cell cultures were incubated at 37 °C and 5% CO2 in
265 a humidified atmosphere, with medium change or subcultivation 2-3 times a week.
269 Cells were lysed in 1x lysis buffer (Cell Signaling #9803) and protein concentration
270 normalized to 10µg/µL. Proteins were separated by SDS-Page and transferred to
271 Nitrocellulose membranes (BioRad) according to standard protocols. Membranes were
273 (Milipore #06-182) and Tubulin (Cell Signaling #2144) in 5% BSA in TBST blocking
274 buffer. After primary antibody incubation membranes were incubated with anti-rabbit
275 IgG secondary antibody (Dako #P0448) and detected with ECL (GE Healthcare Life
278 Compound treatment of cells
279 Synthesized or purchased (ARS 1620) compounds were dissolved in 100% DMSO and
280 stored at a concentration of 10mM at -20°C. Compounds were either serially diluted in […]
Quantification of living cells […]
291 manufacturer’s recommendation. Luminescence was read in a 2030 VICTOR X5 (Perkin […]
305 were trypsinized, counted and plated in 60 µL culture medium containing 2% FCS […]
313 added according to manufacturer’s instructions. Fluorescence intensity was determined
314 using a fluorescence reader (2030 VICTOR X5, Perkin Elmer). […]
319 MAPK pathway signaling (pERK, pAKT quantification) […]

Test [1] deals with SOScat-catalyzed nucleotide exchange on RAS (Homo sapiens, UniProt P01116). Briefly: SOS1 nucleotide exchange assay (BODIPY-GDP).

SMILES strings stand for the structures. pEC50: −log10 of the molar value.

SOScat-catalyzed nucleotide exchange on RAS, sequence (P01116 1-169 isoform P01116-2 limits assumed): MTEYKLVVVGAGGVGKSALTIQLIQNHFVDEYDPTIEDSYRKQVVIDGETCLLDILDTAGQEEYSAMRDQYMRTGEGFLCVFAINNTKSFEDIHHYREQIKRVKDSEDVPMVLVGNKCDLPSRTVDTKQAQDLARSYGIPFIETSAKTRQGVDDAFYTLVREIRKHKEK

With `Cn1cnc(Cn2ccc3ccc(CNCc4[nH]c5ccccc5c4[C@H]4NC(=O)c5ccc(O)cc54)cc32)c1` [Compound 1], the pEC50 (commonly the EC50 on a negative log10 scale, so that one unit is a factor of ten) with NCI-H358 cells was 5.17. Further, the SOScat-mediated exchange entry in test [1] (highest concentrations) is listed as “full inhibition”. Further, the SOS1-catalyzed nucleotide exchange entry in test [1] (several concentrations) is listed as “inhibits the rate of nucleotide exchange in a dose-dependent manner”.

Source of the values: paper PMC6689897, “Drugging an undruggable pocket on KRAS” (Proceedings of the National Academy of Sciences of the …, 2019).
